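Exposure lasted 48 hours, with cells grown in 96-well plates and compounds tested at five concentrations. GI50 is the concentration that inhibits growth by half.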 The source made the active and inactive calls. Rule as the data show it: active = GI50 up to about 1.1 µM and inactive = higher.
What was measured:
Experiment in all cases: inhibition of tumour cell growth, NCI panel, 48 h
MDA-MB-435 = tested on: MDA-MB-435
SF-268 = tested on: SF-268
OVCAR-8 = tested on: OVCAR-8
HCC 2998 = tested on: HCC 2998
LOX IMVI = tested on: LOX IMVI
CCRF-CEM = tested on: CCRF-CEM
KM12 = tested on: KM12
UACC-257 = tested on: UACC-257
SW-620 = tested on: SW-620
SR = tested on: SR
OVCAR-5 = tested on: OVCAR-5
CAKI-1 = tested on: CAKI-1
MDA-MB-231 = tested on: MDA-MB-231
HOP-92 = tested on: HOP-92
M14 = tested on: M14
NCI-H226 = tested on: NCI-H226
MCF7 = tested on: MCF7
UO-31 = tested on: UO-31
DU-145 = tested on: DU-145
Hs-578T = tested on: Hs-578T
SK-MEL-2 = tested on: SK-MEL-2
SNB-75 = tested on: SNB-75
U-251 = tested on: U-251
SK-MEL-28 = tested on: SK-MEL-28
SNB-19 = tested on: SNB-19
786-0 = tested on: 786-0
UACC-62 = tested on: UACC-62
IGROV-1 = tested on: IGROV-1
SK-MEL-5 = tested on: SK-MEL-5
T47D = tested on: T47D
HT-29 = tested on: HT-29
K562 = tested on: K562
SK-OV-3 = tested on: SK-OV-3
COLO 205 = tested on: COLO 205
MDA-N = tested on: MDA-N
OVCAR-4 = tested on: OVCAR-4
ACHN = tested on: ACHN
HCT-15 = tested on: HCT-15
BT-549 = tested on: BT-549
SF-295 = tested on: SF-295
HCT-116 = tested on: HCT-116
NCI-H460 = tested on: NCI-H460
RXF 393 = tested on: RXF 393
OVCAR-3 = tested on: OVCAR-3
HOP-62 = tested on: HOP-62
A549 = tested on: A549
SN12C = tested on: SN12C
A498 = tested on: A498
EKVX = tested on: EKVX
HL-60 = tested on: HL-60
RPMI-8226 = tested on: RPMI-8226
NCI/ADR-RES = tested on: NCI/ADR-RES
NCI-H522 = tested on: NCI-H522
TK-10 = tested on: TK-10
SF-539 = tested on: SF-539
NCI-H23 = tested on: NCI-H23
MOLT-4 = tested on: MOLT-4
PC-3 = tested on: PC-3
Malme-3M = tested on: Malme-3M

Measured: GI50

Nc1ccc2c(c1)NC(=O)[C@@H]1CCCN1C2=O
inactive: MDA-MB-435 > 100 µM | SF-268 > 100 µM | OVCAR-8 > 100 µM | HCC 2998 > 100 µM | LOX IMVI > 100 µM | CCRF-CEM > 100 µM | KM12 > 100 µM | UACC-257 > 100 µM | SW-620 > 100 µM | SR > 100 µM | OVCAR-5 > 100 µM | CAKI-1 > 100 µM | MDA-MB-231 > 100 µM | HOP-92 > 100 µM | M14 > 100 µM | NCI-H226 > 100 µM | MCF7 > 100 µM | UO-31 > 100 µM | DU-145 > 100 µM | Hs-578T > 100 µM | SK-MEL-2 > 100 µM | SNB-75 > 100 µM | U-251 > 100 µM | SK-MEL-28 > 100 µM | SNB-19 > 100 µM | 786-0 > 100 µM | UACC-62 > 100 µM | IGROV-1 > 100 µM | SK-MEL-5 > 100 µM | T47D 96.6 µM | HT-29 > 100 µM | K562 > 100 µM | SK-OV-3 > 100 µM | COLO 205 > 100 µM | MDA-N > 100 µM | OVCAR-4 > 100 µM | ACHN > 100 µM | BT-549 > 100 µM | SF-295 > 100 µM | HCT-116 > 100 µM | NCI-H460 > 100 µM | RXF 393 > 100 µM | OVCAR-3 > 100 µM | HOP-62 > 100 µM | A549 > 100 µM | SN12C > 100 µM | A498 > 100 µM | EKVX > 100 µM | HL-60 > 100 µM | RPMI-8226 > 100 µM | NCI/ADR-RES > 100 µM | NCI-H522 > 100 µM | TK-10 > 100 µM | SF-539 > 100 µM | NCI-H23 > 100 µM | MOLT-4 > 100 µM | PC-3 > 100 µM
> 100 µM: HCT-15

Cc1ccc(/C=N/NS(=O)(=O)c2ccc(/C=C3\NC(=O)NC3=O)cc2)cc1
> 100 µM: HCT-15
inactive: MDA-MB-435 > 100 µM | SF-268 22.1 µM | OVCAR-8 37.8 µM | HCC 2998 > 100 µM | LOX IMVI > 100 µM | CCRF-CEM > 100 µM | KM12 > 100 µM | UACC-257 > 100 µM | SW-620 > 100 µM | SR 31.6 µM | OVCAR-5 35.9 µM | CAKI-1 > 100 µM | MDA-MB-231 37.1 µM | HOP-92 53.7 µM | M14 > 100 µM | NCI-H226 > 100 µM | MCF7 > 100 µM | UO-31 > 100 µM | DU-145 > 100 µM | Hs-578T 24.2 µM | SK-MEL-2 > 100 µM | SNB-75 18.2 µM | Malme-3M > 100 µM | U-251 40.8 µM | SK-MEL-28 > 100 µM | SNB-19 31 µM | 786-0 61.1 µM | UACC-62 > 100 µM | IGROV-1 87.9 µM | SK-MEL-5 > 100 µM | T47D > 100 µM | HT-29 > 100 µM | K562 > 100 µM | SK-OV-3 > 100 µM | COLO 205 > 100 µM | MDA-N > 100 µM | OVCAR-4 > 100 µM | ACHN > 100 µM | BT-549 > 100 µM | SF-295 46.7 µM | HCT-116 > 100 µM | NCI-H460 > 100 µM | RXF 393 > 100 µM | OVCAR-3 > 100 µM | HOP-62 27.6 µM | A549 > 100 µM | SN12C > 100 µM | A498 > 100 µM | EKVX 64.9 µM | HL-60 > 100 µM | RPMI-8226 > 100 µM | NCI/ADR-RES 75.7 µM | TK-10 > 100 µM | NCI-H23 > 100 µM | MOLT-4 > 100 µM | PC-3 > 100 µM

Source: ChEMBL document CHEMBL1201862, “PubChem BioAssay data set” (2004)
